Data published in paper doi:10.1101/2024.08.19.608619, “Discovery of potent SARS-CoV-2 nsp3 macrodomain inhibitors uncovers lack of translation to cellular antiviral response” (bioRxiv, 2024).
Like-named read-outs stand apart in the source and are kept apart here.

Assays:
Assay in all cases: biochemical
Parameters in all cases: In vitro kinase panel profiling, per cent remaining kinase activity at 10 uM
CK1γ1(h) = target: T1, CK1γ1(h) (Homo sapiens, UniProt Q9HCP0); conditions: atp_concentration=15, read-out: % of control remaining
T1 construct: gene CSNK1G1
Description: (§1) We derisk potential for off-target activity by profiling the compound in a CEREP panel, a standard secondary pharmacology assessment, as well as a kinase panel to derisk a potential hinge-binding motif in our leads, and a PARP panel to derisk activity against human […]. Reassuringly, the compounds are selective, with the only off-targets being moderate human CHRM2 and KOR receptors activity associated with ASAP-0011198.

SRPK1(h) = SRPK1(h) (Homo sapiens, UniProt Q96SB4); conditions: atp_concentration=10, read-out: % of control remaining
Description: as §1

PDGFRβ(h) = target: T2, PDGFRβ(h) (Homo sapiens, UniProt P09619); conditions: atp_concentration=200, read-out: % of control remaining
T2 construct: gene PDGFRB
Description: as §1

CK2α2(h) = target: T3, CK2α2(h) (Homo sapiens, UniProt P19784); conditions: atp_concentration=10, read-out: % of control remaining
T3 construct: gene CSNK2A2
Description: as §1

PKG1α(h) = target: T4, PKG1α(h) (Homo sapiens, UniProt Q13976); conditions: atp_concentration=90, read-out: % of control remaining
T4 construct: gene PRKG1; isoform alpha
T4 sequence (Q13976 1-671): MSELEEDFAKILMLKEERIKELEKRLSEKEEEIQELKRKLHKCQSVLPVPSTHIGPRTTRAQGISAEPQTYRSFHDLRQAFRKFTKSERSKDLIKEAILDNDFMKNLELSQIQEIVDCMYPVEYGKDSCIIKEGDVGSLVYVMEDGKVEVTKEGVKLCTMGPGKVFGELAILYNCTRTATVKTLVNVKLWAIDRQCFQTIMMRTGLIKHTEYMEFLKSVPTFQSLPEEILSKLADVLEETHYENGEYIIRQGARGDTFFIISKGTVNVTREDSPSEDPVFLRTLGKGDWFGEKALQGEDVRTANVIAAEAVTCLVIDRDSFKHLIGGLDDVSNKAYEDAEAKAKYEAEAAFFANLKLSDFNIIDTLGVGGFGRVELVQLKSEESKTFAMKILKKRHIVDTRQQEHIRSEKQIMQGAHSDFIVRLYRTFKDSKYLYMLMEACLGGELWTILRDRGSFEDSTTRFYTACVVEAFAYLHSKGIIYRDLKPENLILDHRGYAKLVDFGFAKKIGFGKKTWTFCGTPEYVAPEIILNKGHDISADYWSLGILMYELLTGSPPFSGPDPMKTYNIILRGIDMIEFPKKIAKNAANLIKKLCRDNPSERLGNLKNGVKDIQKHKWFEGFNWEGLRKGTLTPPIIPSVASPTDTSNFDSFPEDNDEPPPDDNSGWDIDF
Description: as §1

Pim-1(h) = target: T5, Pim-1(h) (Homo sapiens, UniProt P11309); conditions: atp_concentration=90, read-out: % of control remaining
T5 construct: gene PIM1
Description: as §1

IRAK4(h) = target: T6, IRAK4(h) (Homo sapiens, UniProt Q9NWZ3); conditions: atp_concentration=200, read-out: % of control remaining
T6 sequence (Q9NWZ3 1-460): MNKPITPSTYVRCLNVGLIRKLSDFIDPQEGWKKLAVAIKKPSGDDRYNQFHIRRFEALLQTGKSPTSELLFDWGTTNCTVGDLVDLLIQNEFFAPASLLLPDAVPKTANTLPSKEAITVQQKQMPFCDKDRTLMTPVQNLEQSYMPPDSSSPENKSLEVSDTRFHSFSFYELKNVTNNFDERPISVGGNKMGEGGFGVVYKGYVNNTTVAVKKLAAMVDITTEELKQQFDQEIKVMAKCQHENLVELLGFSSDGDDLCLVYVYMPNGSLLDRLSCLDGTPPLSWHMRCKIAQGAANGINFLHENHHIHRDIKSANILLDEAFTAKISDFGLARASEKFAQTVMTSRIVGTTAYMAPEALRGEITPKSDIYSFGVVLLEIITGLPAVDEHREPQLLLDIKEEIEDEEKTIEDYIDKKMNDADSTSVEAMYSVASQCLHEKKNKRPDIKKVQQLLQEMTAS
Description: as §1

MEK1(h) = target: T7, MEK1(h) (Homo sapiens, UniProt Q02750); conditions: atp_concentration=10, read-out: % of control remaining
T7 construct: gene MAP2K1
Description: as §1

Aurora-A(h) = target: T8, Aurora-A(h) (Homo sapiens, UniProt O14965); conditions: atp_concentration=15, read-out: % of control remaining
T8 construct: gene AURKA
T8 sequence (O14965 1-403): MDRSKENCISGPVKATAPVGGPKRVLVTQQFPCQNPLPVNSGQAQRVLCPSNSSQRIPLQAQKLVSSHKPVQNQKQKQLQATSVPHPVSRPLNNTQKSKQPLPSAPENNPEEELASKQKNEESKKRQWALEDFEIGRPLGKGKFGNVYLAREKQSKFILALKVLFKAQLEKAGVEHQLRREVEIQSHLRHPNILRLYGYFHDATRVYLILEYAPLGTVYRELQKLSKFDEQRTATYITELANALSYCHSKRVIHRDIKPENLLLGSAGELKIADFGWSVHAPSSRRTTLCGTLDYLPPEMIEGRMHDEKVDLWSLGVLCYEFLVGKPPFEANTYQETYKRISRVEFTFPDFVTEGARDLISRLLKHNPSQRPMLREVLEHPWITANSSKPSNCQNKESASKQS
Description: as §1

EphA5(h) = EphA5(h) (Homo sapiens, UniProt P54756); conditions: atp_concentration=10, read-out: % of control remaining
Description: as §1

PAK2(h) = PAK2(h) (Homo sapiens, UniProt Q13177); conditions: atp_concentration=90, read-out: % of control remaining
Description: as §1

T2 sequence (P09619 whole entry): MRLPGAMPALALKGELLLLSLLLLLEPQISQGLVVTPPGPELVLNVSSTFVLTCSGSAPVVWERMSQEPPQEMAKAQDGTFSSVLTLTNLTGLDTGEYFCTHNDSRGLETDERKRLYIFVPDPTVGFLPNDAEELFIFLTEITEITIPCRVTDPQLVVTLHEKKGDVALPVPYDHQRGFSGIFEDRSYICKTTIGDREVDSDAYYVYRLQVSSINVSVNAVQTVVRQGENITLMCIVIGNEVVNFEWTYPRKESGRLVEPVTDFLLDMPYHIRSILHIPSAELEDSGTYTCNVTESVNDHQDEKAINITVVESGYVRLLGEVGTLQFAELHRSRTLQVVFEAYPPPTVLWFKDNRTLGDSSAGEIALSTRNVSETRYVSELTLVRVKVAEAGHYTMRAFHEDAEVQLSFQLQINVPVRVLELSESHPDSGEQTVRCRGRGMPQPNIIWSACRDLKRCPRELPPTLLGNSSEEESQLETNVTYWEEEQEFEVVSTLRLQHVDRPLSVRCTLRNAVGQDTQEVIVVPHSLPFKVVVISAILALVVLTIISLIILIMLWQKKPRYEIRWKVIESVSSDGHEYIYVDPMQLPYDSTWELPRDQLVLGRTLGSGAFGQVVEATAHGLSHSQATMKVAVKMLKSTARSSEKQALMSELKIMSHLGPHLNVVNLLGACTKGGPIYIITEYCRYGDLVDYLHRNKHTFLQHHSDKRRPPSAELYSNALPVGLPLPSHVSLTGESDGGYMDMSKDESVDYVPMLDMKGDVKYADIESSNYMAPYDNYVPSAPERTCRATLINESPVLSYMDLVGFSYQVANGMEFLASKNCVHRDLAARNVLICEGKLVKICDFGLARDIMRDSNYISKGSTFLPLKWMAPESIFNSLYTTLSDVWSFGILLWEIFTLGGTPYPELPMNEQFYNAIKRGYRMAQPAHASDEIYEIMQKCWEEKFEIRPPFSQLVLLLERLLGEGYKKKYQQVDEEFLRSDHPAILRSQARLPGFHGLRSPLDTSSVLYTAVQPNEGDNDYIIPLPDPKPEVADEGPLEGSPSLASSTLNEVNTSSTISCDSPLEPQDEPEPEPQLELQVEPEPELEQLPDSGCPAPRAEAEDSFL
Chain of EphA5(h) (P54756 whole entry): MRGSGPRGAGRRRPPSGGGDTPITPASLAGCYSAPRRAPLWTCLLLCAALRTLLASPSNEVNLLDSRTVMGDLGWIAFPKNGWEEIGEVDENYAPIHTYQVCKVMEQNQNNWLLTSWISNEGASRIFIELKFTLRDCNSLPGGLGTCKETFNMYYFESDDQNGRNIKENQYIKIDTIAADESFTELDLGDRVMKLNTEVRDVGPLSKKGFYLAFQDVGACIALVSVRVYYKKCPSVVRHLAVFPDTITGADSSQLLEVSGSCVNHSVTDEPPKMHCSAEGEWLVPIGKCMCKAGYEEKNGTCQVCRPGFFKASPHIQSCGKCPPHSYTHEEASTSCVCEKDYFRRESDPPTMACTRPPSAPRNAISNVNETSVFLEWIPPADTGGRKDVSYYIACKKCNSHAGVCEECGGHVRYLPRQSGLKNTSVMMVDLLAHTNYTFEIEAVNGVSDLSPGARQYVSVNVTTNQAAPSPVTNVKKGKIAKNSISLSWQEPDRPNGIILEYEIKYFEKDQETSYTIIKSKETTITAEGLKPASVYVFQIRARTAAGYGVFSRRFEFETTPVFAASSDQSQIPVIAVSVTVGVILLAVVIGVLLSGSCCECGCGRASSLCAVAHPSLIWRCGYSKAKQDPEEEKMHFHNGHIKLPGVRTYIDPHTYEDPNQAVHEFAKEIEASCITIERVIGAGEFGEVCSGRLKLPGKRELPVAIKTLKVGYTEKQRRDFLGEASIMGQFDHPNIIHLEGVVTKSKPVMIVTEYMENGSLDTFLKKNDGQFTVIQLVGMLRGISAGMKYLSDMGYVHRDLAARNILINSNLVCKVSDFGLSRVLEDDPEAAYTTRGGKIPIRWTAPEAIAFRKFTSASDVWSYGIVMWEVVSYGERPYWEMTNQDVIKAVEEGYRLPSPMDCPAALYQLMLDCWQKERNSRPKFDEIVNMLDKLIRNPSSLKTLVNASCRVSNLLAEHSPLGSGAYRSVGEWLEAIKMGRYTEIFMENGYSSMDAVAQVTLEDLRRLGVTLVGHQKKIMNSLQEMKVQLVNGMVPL
Chain of PAK2(h) (Q13177 whole entry): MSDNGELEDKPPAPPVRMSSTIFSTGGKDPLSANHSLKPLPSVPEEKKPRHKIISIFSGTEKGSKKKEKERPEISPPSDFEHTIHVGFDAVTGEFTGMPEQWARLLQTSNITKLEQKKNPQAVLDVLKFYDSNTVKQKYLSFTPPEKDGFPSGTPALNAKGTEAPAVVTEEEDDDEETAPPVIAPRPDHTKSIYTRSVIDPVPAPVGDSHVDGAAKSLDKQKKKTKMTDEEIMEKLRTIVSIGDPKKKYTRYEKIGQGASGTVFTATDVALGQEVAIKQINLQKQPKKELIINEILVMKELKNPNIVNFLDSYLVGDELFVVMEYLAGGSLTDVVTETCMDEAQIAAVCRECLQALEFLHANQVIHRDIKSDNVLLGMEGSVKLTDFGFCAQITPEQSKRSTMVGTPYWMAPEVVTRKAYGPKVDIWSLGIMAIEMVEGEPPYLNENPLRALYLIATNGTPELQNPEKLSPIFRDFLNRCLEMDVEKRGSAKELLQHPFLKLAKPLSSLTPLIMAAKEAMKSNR
T3 sequence (P19784 whole entry): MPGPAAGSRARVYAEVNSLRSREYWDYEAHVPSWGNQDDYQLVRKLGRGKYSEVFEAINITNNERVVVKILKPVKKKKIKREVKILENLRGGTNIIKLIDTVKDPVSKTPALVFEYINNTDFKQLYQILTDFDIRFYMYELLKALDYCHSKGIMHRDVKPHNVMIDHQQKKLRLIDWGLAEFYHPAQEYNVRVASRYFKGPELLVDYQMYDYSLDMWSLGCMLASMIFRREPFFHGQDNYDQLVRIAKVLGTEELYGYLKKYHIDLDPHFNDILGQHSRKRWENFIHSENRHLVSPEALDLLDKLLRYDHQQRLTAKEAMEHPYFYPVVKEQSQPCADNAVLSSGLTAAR
T1 sequence (Q9HCP0 whole entry): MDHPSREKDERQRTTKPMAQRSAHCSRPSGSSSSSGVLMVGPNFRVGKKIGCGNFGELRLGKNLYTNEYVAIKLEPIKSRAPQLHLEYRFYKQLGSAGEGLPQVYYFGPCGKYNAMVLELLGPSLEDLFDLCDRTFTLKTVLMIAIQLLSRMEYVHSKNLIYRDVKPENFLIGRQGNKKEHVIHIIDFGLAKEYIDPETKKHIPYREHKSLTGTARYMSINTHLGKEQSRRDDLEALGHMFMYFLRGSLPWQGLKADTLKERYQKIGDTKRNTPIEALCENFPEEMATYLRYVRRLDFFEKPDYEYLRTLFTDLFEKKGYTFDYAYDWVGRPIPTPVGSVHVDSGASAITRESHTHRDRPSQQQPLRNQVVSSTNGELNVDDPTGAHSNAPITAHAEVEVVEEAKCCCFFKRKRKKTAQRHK
T5 sequence (P11309 whole entry): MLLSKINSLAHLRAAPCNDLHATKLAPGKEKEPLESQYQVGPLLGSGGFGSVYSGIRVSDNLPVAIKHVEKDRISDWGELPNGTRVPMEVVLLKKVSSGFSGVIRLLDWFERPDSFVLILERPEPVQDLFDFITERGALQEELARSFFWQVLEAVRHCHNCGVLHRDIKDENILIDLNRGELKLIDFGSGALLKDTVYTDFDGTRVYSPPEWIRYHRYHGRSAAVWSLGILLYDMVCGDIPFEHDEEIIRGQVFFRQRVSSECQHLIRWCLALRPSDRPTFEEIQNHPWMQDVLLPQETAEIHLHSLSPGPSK
Chain of SRPK1(h) (Q96SB4 whole entry): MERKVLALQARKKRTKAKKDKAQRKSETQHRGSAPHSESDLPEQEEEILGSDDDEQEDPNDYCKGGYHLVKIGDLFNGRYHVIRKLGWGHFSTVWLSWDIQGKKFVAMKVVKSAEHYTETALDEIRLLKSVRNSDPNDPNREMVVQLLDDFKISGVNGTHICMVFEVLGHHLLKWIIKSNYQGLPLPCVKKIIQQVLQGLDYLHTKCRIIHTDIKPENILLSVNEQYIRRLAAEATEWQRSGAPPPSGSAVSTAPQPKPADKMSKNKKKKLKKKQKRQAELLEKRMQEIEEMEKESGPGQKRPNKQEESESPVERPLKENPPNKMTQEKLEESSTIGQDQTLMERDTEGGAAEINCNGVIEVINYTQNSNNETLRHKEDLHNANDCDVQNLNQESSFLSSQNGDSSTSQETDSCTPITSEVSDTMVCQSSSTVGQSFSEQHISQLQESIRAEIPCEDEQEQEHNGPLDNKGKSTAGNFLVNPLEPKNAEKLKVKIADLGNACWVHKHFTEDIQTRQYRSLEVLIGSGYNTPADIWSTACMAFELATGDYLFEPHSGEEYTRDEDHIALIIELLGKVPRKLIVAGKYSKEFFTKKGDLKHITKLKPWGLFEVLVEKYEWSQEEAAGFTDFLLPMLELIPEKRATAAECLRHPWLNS
T7 sequence (Q02750 whole entry): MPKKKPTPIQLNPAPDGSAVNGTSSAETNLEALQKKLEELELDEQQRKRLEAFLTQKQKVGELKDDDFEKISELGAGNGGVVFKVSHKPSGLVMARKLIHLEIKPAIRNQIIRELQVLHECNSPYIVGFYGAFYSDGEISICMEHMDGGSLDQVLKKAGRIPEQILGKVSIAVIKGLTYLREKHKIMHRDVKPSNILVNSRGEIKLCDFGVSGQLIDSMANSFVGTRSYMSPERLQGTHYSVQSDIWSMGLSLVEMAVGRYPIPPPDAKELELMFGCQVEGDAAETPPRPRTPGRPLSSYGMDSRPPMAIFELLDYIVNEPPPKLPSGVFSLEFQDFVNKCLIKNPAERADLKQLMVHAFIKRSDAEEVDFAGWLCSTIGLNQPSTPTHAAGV

CC(C)C(Nc1ncnc2[nH]ccc12)c1ccc2c(c1)S(=O)(=O)CCC2 (centres unmarked) [ASAP-0008327]
remaining activity at 10 µM (CK1γ1(h); batch_name=ASAP-0008327-001): 102%
remaining activity at 10 µM (SRPK1(h); batch_name=ASAP-0008327-001): 105%
remaining activity at 10 µM (PDGFRβ(h); batch_name=ASAP-0008327-001): 99%
remaining activity at 10 µM (CK2α2(h); batch_name=ASAP-0008327-001): 90%
remaining activity at 10 µM (PKG1α(h); batch_name=ASAP-0008327-001): 88%
remaining activity at 10 µM (Pim-1(h); batch_name=ASAP-0008327-001): 80%
remaining activity at 10 µM (IRAK4(h); batch_name=ASAP-0008327-001): 88%
remaining activity at 10 µM (MEK1(h); batch_name=ASAP-0008327-001): 97%
remaining activity at 10 µM (Aurora-A(h); batch_name=ASAP-0008327-001): 57%
remaining activity at 10 µM (EphA5(h); batch_name=ASAP-0008327-001): 110%
remaining activity at 10 µM (PAK2(h); batch_name=ASAP-0008327-001): 110%

COc1ccc([C@@H](Cc2nnn[nH]2)NC(=O)c2ncnc3[nH]ccc23)cc1 [ASAP-0008340]
remaining activity at 10 µM (CK1γ1(h); batch_name=ASAP-0008340-001): 95%
remaining activity at 10 µM (SRPK1(h); batch_name=ASAP-0008340-001): 102%
remaining activity at 10 µM (PDGFRβ(h); batch_name=ASAP-0008340-001): 102%
remaining activity at 10 µM (CK2α2(h); batch_name=ASAP-0008340-001): 88%
remaining activity at 10 µM (PKG1α(h); batch_name=ASAP-0008340-001): 95%
remaining activity at 10 µM (Pim-1(h); batch_name=ASAP-0008340-001): 91%
remaining activity at 10 µM (IRAK4(h); batch_name=ASAP-0008340-001): 91%
remaining activity at 10 µM (MEK1(h); batch_name=ASAP-0008340-001): 92%
remaining activity at 10 µM (Aurora-A(h); batch_name=ASAP-0008340-001): 71%
remaining activity at 10 µM (EphA5(h); batch_name=ASAP-0008340-001): 106%
remaining activity at 10 µM (PAK2(h); batch_name=ASAP-0008340-001): 102%

CC(C)[C@@H](Nc1ncnc2[nH]c(-c3cnn(C)c3C#N)cc12)c1ccc2c(n1)OCCO2 [ASAP-0008418]
remaining activity at 10 µM (CK1γ1(h); batch_name=ASAP-0008418-001): 87%
remaining activity at 10 µM (SRPK1(h); batch_name=ASAP-0008418-001): 92%
remaining activity at 10 µM (PDGFRβ(h); batch_name=ASAP-0008418-001): 108%
remaining activity at 10 µM (CK2α2(h); batch_name=ASAP-0008418-001): 86%
remaining activity at 10 µM (PKG1α(h); batch_name=ASAP-0008418-001): 100%
remaining activity at 10 µM (Pim-1(h); batch_name=ASAP-0008418-001): 79%
remaining activity at 10 µM (IRAK4(h); batch_name=ASAP-0008418-001): 100%
remaining activity at 10 µM (MEK1(h); batch_name=ASAP-0008418-001): 99%
remaining activity at 10 µM (Aurora-A(h); batch_name=ASAP-0008418-001): 44%
remaining activity at 10 µM (EphA5(h); batch_name=ASAP-0008418-001): 91%
remaining activity at 10 µM (PAK2(h); batch_name=ASAP-0008418-001): 95%

CC(C)[C@H](Nc1ncnc2[nH]ccc12)c1ccc2c(c1)S(=O)(=O)CCC2 [ASAP-0008674]
remaining activity at 10 µM (CK1γ1(h); batch_name=ASAP-0008674-002): 97%
remaining activity at 10 µM (SRPK1(h); batch_name=ASAP-0008674-002): 100%
remaining activity at 10 µM (PDGFRβ(h); batch_name=ASAP-0008674-002): 89%
remaining activity at 10 µM (CK2α2(h); batch_name=ASAP-0008674-002): 87%
remaining activity at 10 µM (PKG1α(h); batch_name=ASAP-0008674-002): 123%
remaining activity at 10 µM (Pim-1(h); batch_name=ASAP-0008674-002): 91%
remaining activity at 10 µM (IRAK4(h); batch_name=ASAP-0008674-002): 112%
remaining activity at 10 µM (MEK1(h); batch_name=ASAP-0008674-002): 94%
remaining activity at 10 µM (Aurora-A(h); batch_name=ASAP-0008674-002): 51%
remaining activity at 10 µM (EphA5(h); batch_name=ASAP-0008674-002): 102%
remaining activity at 10 µM (PAK2(h); batch_name=ASAP-0008674-002): 102%
